Source: paper PMC10150926, “PHT427 as an effective New Delhi metallo-β-lactamase-1 (NDM-1) inhibitor restored the susceptibility of meropenem against Enterobacteriaceae producing NDM-1” (Frontiers in Microbiology, 2023)

Key:
Assay type in all cases: binding
[1] = molecular target: T1, New Delhi metallo-β-lactamase-1 (NDM-1) (Klebsiella pneumoniae, UniProt C7C422, N220A); assay: SPR
T1 construct: gene blaNDM-1

[2] = molecular target: T2, New Delhi metallo-β-lactamase-1 (NDM-1) (Klebsiella pneumoniae, UniProt C7C422); assay: SPR (also fluorescence quenching; purified enzyme inhibition with meropenem, IC50 […])
T2 construct: gene blaNDM-1

[3] = molecular target: T3, New Delhi metallo-β-lactamase-1 (NDM-1) (Klebsiella pneumoniae, UniProt C7C422, Q123A); assay: SPR
T3 construct: gene blaNDM-1

CCCCCCCCCCCCc1ccc(S(=O)(=O)Nc2nncs2)cc1 [PHT427, 4-dodecyl-N-1,3,4-thiadiazol-2-yl-benzenesulfonamide]
Kd [1]: 896 µM
Kd [2]: 62.8 µM
Kd [3]: 124 µM
